Laboratory results reported in publication PMC11215307, “Targeting dermatophyte Cdc42 and Rac GTPase signaling to hinder hyphal elongation and virulence” (iScience, 2024).
Entries after “also recorded” stand apart in the source; their conditions may differ.

Tests used:
[1] = test system: TrRac; assay: Guanine nucleotide exchange assay of TrRac promoted by TrCdc24 DH-PH (bodipy-FL GTP fluorescence); format: biochemical, Trichophyton rubrum; details: fluorescence at 60 min
Experimental: (§1) One μM of TrRac or TrCdc42-His was mixed with 0.1 μM bodipy-FL GTP (Thermo Fisher, Waltham, MA, USA) in Buffer A and allowed to equilibrate for 3 min at 20°C–25°C. Ammonium sulfate, EDTA, or recombinant TrCdc24 DH-PH proteins were incubated with the compounds or vehicles alone (final DMSO concentration: 1%) at the indicated concentrations in the reaction buffer for 20 min at room temperature. The reaction was initiated by combining TrRac or TrCdc42/bodipy-FL GTP (100 μL) with Cdc24DH-PH (50 μL) at room temperature. The change in bodipy-FL-GTP fluorescence (excitation: 485 nm, emission: 535 nm) was monitored for 60 min using a Berthold tristar2 LB942.
(§2) Statistical analyses were conducted using Microsoft Excel and Prism 10, GraphPad. All experiments were performed more than three times. Statistical significance was determined using Student’s t test, one-way analysis of variance, and Tukey–Kramer test. IC50 values were ascertained by plotting the fluorescent intensity (% of control) at 60 min using a specific formula: IC50=x2−(x2/x1)^(50−y2/y2−y1)

[2] = test system: T. rubrum mycelial growth; assay: Mycelial growth inhibition on modified 1/10 Sabouraud glucose agar; format: cell-based, Trichophyton rubrum; details: in cellulo screen of small GTPase inhibitors
Experimental: Trichophyton rubrum CBS118892, Escherichia coli BL21, and Agrobacterium tumefaciens EHA105 were used.[74]^,[78]^,[79] E. coli BL21 was cultured in LB medium with appropriate antibiotics at 37°C. A. tumefaciens was cultured in LB or Agrobacterium induction medium supplemented with 0.2 mM acetosyringone at 28°C.[73] T. rubrum was cultured at 28°C. Conidia of T. rubrum were prepared using a previously described method.[80] Sabouraud agar or RPMI with MOPS agar was used for hyphal formation. To evaluate mycelial growth inhibition by inhibitors, a modified 1/10 Sabouraud glucose agar (containing 0.2% bacto peptone, 0.1% glucose, 0.1% KH2PO4, 0.1% MgSO4 7H2O, 1.5% bacto agar, pH unadjusted) was used.

[3] = test system: TrCdc42; assay: Guanine nucleotide exchange assay of TrCdc42-His promoted by TrCdc24 DH-PH (bodipy-FL GTP fluorescence); format: biochemical, Trichophyton rubrum; details: for IC50: guanine nucleotide exchange of TrCdc42 by TrCdc24, fluorescence at 60 min; for Selectivity between fungal Cdc42 and Rac: comparison of TrCdc42 and TrRac IC50 (Table 1)
Experimental: as §1, §2

[4] = test system: T. rubrum conidial germination; assay: T. rubrum conidia germination assay; format: cell-based, Trichophyton rubrum; details: for IC50: overnight incubation at 28°C in Sabouraud medium, calcofluor white staining; for Effect on conidial germination in T. rubrum: in cellulo screen of small GTPase inhibitors
Experimental: Fungal conidia (2 × 10^6) were subjected to an overnight incubation at 28°C in Sabouraud medium, supplemented with 1% DMSO (control) or the Rac and/or Cdc42 inhibitors; 10, 32, and 100 μM EHop-016; 100, 320, and 1000 μM AZA1; 10, 32, and 100 μM EHT1864; 10, 100, and 1000 μM CASIN; 200, 500, and 1000 μM NSC23766; 20, 200, and 2000 μM ketorolac; 100 μM MBQ-167; 1 and 10 μM ML-141; 1000 μM ZCL278; and 50 μM ITX3. Following the incubation, the fungal conidia were washed twice with saline and then stained with 0.2 mM calcofluor white. The germinated and ungerminated conidia were subsequently observed and counted under a fluorescent microscope (Olympus BX53).

[5] = test system: T. rubrum; assay: Invertebrate (silkworm) infection model of dermatophytosis; format: in vivo, Bombyx mori; details: conidia (5 × 10^6) injected into silkworm hemolymph
Experimental: Eggs from silkworms were procured from Ehime-Sansh Co., Ltd. (Japan) and reared following a method described previously.[86]^,[87] Fifth instar silkworm larvae were nourished with an artificial diet (Silkmate 2S; Ehime-Sanshu Co., Ltd., Japan) overnight.[88]^,[89] Dermatophyte infection was conducted in accordance with a previously outlined procedure.[53] Conidia (5 × 10^6) of T. rubrum were injected into the silkworm hemolymph.

[6] = test system: T. rubrum growth on human nail fragments; assay: In vitro nail infection assay; format: cell-based, Trichophyton rubrum; details: 2.6% (60 mM) EHop-016, four applications every 24 h, observed after 36 days at 28°C, versus vehicle
Experimental: The conidial suspension (1 × 10^4/10 μL/nail fragment) of T. rubrum was administered to autoclaved nail fragments obtained from an adult volunteer (ethics approval, No. R3-6, Musashino University, Japan) and incubated at 28°C. After 24 h, either the vehicle (30% DMSO/5% Tween 80) or 60 mM EHop-016 was applied to the nail fragment. A total of four applications were administered every 24 h. The nails were examined after 36 days of incubation.

Cc1cc2cc(Nc3ccnc(Nc4ccc5[nH]c(C)cc5c4)n3)ccc2[nH]1 [AZA1]
IC50 [1]: 127 µM | Effect on mycelial growth in T. rubrum [2]: hindered | IC50 [3]: 147 µM | IC50 ([4]; Trichophyton rubrum): 127 µM | Effect on conidial germination in T. rubrum [4]: hindered

C[C@H]1CCC/C=C/[C@@H]2C[C@H](O)C[C@H]2[C@H](O)/C=C/C(=O)O1 [Brefeldin A]
Effect on mycelial growth in T. rubrum [2]: did not | Effect on conidial germination in T. rubrum [4]: did not

OCCNC1CCCc2c1[nH]c1ccc(-c3ccccc3)cc21 (centres unmarked) [CASIN]
IC50 [1]: 518 µM | IC50 [3]: 192 µM | IC50 [4]: 20 µM

O=c1cc(CN2CCOCC2)occ1OCCCCCSc1ccnc2cc(C(F)(F)F)ccc12 [EHT1864]
IC50 [1]: > 1000 µM | Effect on mycelial growth in T. rubrum [2]: hindered | Selectivity between fungal Cdc42 and Rac [3]: higher selectivity for Cdc42 than for Rac | IC50 [3]: 154 µM | IC50 ([4]; Trichophyton rubrum): 16 µM | Effect on conidial germination in T. rubrum [4]: hindered

CCn1c2ccccc2c2cc(Nc3ccnc(NCCCN4CCOCC4)n3)ccc21 [EHop-016]
Survival of silkworms infected with T. rubrum [5]: significantly extended the survival | IC50 [1]: 137 µM | Selectivity between fungal Cdc42 and Rac [3]: higher selectivity for Cdc42 than for Rac | IC50 [3]: 40 µM | IC50 ([4]; Trichophyton rubrum): 45 µM | T. rubrum growth on human nails [6]: no fungal lawn was observed; also recorded: lesser T. rubrum growth on the nails

Cc1cc(/C=c2/sc3nc4ccccc4n3c2=O)c(C)n1-c1ccccc1 [ITX3]
IC50 [1]: > 50 µM | IC50 [3]: > 50 µM | IC50 [4]: > 50 µM

O=C(c1ccccc1)c1ccc2n1CCC2C(=O)O (centres unmarked) [Ketorolac]
IC50 [1]: 1420 µM | IC50 [3]: 889 µM | IC50 ([4]; Trichophyton rubrum): 363 µM

CCn1c2ccccc2c2cc(-n3nncc3-c3ccccc3)ccc21 [MBQ-167]
IC50 [1]: > 100 µM | IC50 [3]: > 100 µM | IC50 ([4]; Trichophyton rubrum): > 100 µM | Inhibitory activity in conidial germination inhibition assay ([4]; at 100 μM): did not show any inhibitory activity

COc1ccc(C2CC(c3ccccc3)=NN2c2ccc(S(N)(=O)=O)cc2)cc1 (centres unmarked) [ML-141]
IC50 [1]: > 1000 µM | IC50 [3]: > 1000 µM | IC50 [4]: 1.7 µM

CCN(CC)CCCC(C)Nc1nc(C)cc(Nc2ccc3nc(C)cc(N)c3c2)n1 (centres unmarked) [NSC23766]
IC50 [1]: 477 µM | Effect on mycelial growth in T. rubrum [2]: hindered | IC50 [3]: 368 µM | IC50 ([4]; Trichophyton rubrum): 640 µM | Effect on conidial germination in T. rubrum [4]: hindered

Cc1cc(C)nc(NS(=O)(=O)c2ccc(NC(=S)NC(=O)COc3ccc(Br)cc3Cl)cc2)n1 [ZCL278]
IC50 [1]: > 1000 µM | IC50 [3]: > 1000 µM | IC50 [4]: > 1000 µM

NAV2729
Effect on mycelial growth in T. rubrum [2]: did not | Effect on conidial germination in T. rubrum [4]: did not

Rhosin
Effect on mycelial growth in T. rubrum [2]: did not | Effect on conidial germination in T. rubrum [4]: did not
